Experimental data reported in US20100240686A1, “CHEMICAL COMPOUNDS” (priority 2006, published 2010).
pIC50: −log10 of the molar value.

Target: T1, CDK2/Cyclin E (Homo sapiens, UniProt P24941)
T1 construct: The open reading frames of CDK2 and Cyclin E were isolated by reverse transcriptase-PCR; made in house; host or cells: Spodoptera frugiperda SF21 insect cells (baculovirus co-infection, pVL1393)
Assay: in vitro kinase assay, Scintillation Proximity Assay (incorporation of [γ-33-P]-ATP into GST-Rb)
Assay type: biochemical
Settings: CDK2/Cyclin E partially-purified enzyme, GST-Rb substrate, 0.2 μM ATP, room temperature 60 minutes; read-out: CDK2 inhibitory activity IC50
Protocol: The compounds were tested in an in vitro kinase assay in 96 well format using Scintillation Proximity Assay (SPA—obtained from Amersham) for measuring incorporation of [γ-33-P]-Adenosine Triphosphate into a test substrate (GST-Retinoblastoma protein; GST-Rb). In each well was placed the compound to be tested (diluted in DMSO and water to correct concentrations) and in control wells either roscovitine as an inhibitor control or DMSO as a […] control.
Approximately 0.2 μl of CDK2/Cyclin E partially-purified enzyme (amount dependent on enzyme activity) diluted in 25 μl incubation buffer was added to each well then 20 μl of GST-Rb/ATP/ATP33 mixture (containing 0.5 μg GST-Rb and 0.2 μM ATP and 0.14 μCi [γ-33-P]-Adenosine Triphosphate in incubation buffer), and the resulting mixture shaken gently, then incubated at room temperature for 60 minutes. […]
The plates were sealed with Topseal-S plate sealers, left for two hours then spun at 2500 rpm, 1124×g., for 5 minutes. The plates were read on a Topcount for 30 seconds per well. […]
The open reading frames of CDK2 and Cyclin E were isolated by reverse transcriptase-PCR using HeLa cell and activated T cell mRNA as a template and cloned into the insect expression vector pVL1393 (obtained from Invitrogen 1995 catalogue number: V1392-20). […]

- pIC50: 8.52
SMILES: Cc1ncc(-c2ccnc(Nc3ccc(C(=O)NCCN(C)C)c(F)c3)n2)n1C(C)C [Example 2, N-(2-Dimethylaminoethyl)-2-fluoro-4-[[4-(2-methyl-3-propan-2-yl-imidazol-4-yl)pyrimidin-2-yl]amino]benzamide]
